From patent US7083962B2, “Carbonyl reductases, polynucleotides comprising DNA encoding the same, methods for producing the same, and methods for producing optically active alcohol utilizing the same” (Daicel Chemical Industries Ltd., priority 2004, dated 2006)

B1: YDR541c: Saccharomyces cerevisiae carbonyl reductase homolog, SEQ ID NO: 25, expressed in E. coli from pSE-YDR1 (protein, listed as Saccharomyces cerevisiae)
chain: MSNTVLVSGASGFIALHILSQLLKQDYKVIGTVRSHEKEAKLLRQFQHNPNLTLEIVPDISHPNAFDKVLQKRGREIRYVLHTASPFHYDTTEYEKDLLIPALEGTKNILNSIKKYAADTVERVVVTSSCTAIITLAKMDDPSVVFTEESWNEATWESCQIDGINAYFASKKFAEKAAWEFTKENEDHIKFKLTTVNPSLLFGPQLFDEDVHGHLNTSCEMINGLIHTPVNASVPDFHSIFIDVRDVALAHLYAFQKENTAGKRLVVTNGKFGNQDILDILNEDFPQLRGLIPLGKPGTGDQVIDRGSTTDNSATRKILGFEFRSLHESVHDTAAQILKKENRL
B2: YGL039w: Saccharomyces cerevisiae carbonyl reductase homolog, SEQ ID NO: 21, expressed in E. coli from pSE-YGD9 (protein, listed as Saccharomyces cerevisiae)
chain: MTTEKTVVFVSGATGFIALHVVDDLLKTGYKVIGSGRSQEKNDGLLKKFKSNPNLSMEIVEDIAAPNAFDKVFQKHGKEIKVVLHIASPVHFNTTDFEKDLLIPAVNGTKSILEAIKNYAADTVEKVVITSSVAALASPGDMKDTSFVVNEESWNKDTWESCQANAVSAYCGSKKFAEKTAWDFLEENQSSIKFTLSTINPGFVFGPQLFADSLRNGINSSSAIIANLVSYKLGDNFYNYSGPFIDVRDVSKAHLLAFEKPECAGQRLFLCEDMFCSQEALDILNEEFPQLKGKIATGEPGSGSTFLTKNCCKCDNRKTKNLLGFQFNKFRDCIVDTASQLLEVQSKS
B3: YGL157w: Saccharomyces cerevisiae carbonyl reductase homolog, SEQ ID NO: 17, expressed in E. coli from pSE-YGP7 (protein, listed as Saccharomyces cerevisiae)
chain: MTTDTTVFVSGATGFIALHIMNDLLKAGYTVIGSGRSQEKNDGLLKKFNNNPKLSMEIVEDIAAPNAFDEVFKKHGKEIKIVLHTASPFHFETTNFEKDLLTPAVNGTKSILEAIKKYAADTVEKVIVTSSTAALVTPTDMNKGDLVITEESWNKDTWDSCQANAVAAYCGSKKFAEKTAWEFLKENKSSVKFTLSTINPGFVFGPQMFADSLKHGINTSSGIVSELIHSKVGGEFYNYCGPFIDVRDVSKAHLVAIEKPECTGQRLVLSEGLFCCQEIVDILNEEFPQLKGKIATGEPATGPSFLEKNSCKFDNSKTKKLLGFQFYNLKDCIVDTAAQMLEVQNEA

Test system: not listed separately
Test: 3,4-dimethoxyphenylacetone-reducing activity of cell-free extracts of transformed Escherichia coli
Format: biochemical, Escherichia coli JM109
Conditions: cell-free extracts of E. coli expressing the homolog
Description: (§1) A reaction solution comprising 50 mM potassium phosphate buffer (pH 6.5), 0.2 mM NADPH, 5 mM 3,4-dimethoxyphenylacetone, and an enzyme is reacted at 30° C. Any decrease in absorbance at 340 nm accompanying a decrease in NADPH is measured. 1U is defined as the amount of enzyme which catalyzes a 1 μmol decrease of NADPH in one minute.
Escherichia coli JM109 strain transformed with plasmid pSE-TDR1, which expresses carbonyl reductase, and plasmid pSG-TDR1, which coexpresses carbonyl reductase and Bacillus subtilis-derived glucose dehydrogenase, was cultured overnight at 30° C. in liquid LB medium containing ampicillin. 0.1 mM IPTG was added, and the strain was further cultured for four hours.
Cells were collected by centrifugation, and then suspended in 50 mM potassium phosphate buffer (pH 6.5) comprising 0.5 M NaCl, 0.02% 2-mercaptoethanol, 2 mM PMSF, and 10% glycerin. Cells were then disrupted by sonication, and centrifuged. The obtained supernatant was used as a cell-free extract. The 3,4-dimethoxyphenylacetone-reducing activity and glucose-dehydrogenating activity of the cell-free extract were measured. The glucose-dehydrogenating activity was measured as follows: Measurements were performed at 30° C. in a reaction solution comprising the enzyme and 100 mM potassium phosphate buffer (pH 6.5), 2.5 mM NAD^+, 100 mM glucose. 1 U was defined as the amount of enzyme to catalyze production of […] of NADH per minute under the aforementioned reaction conditions.
Escherichia coli JM109+strains comprising pSE-YGP7, pSE-YGD9, pSE-YDR1, pSG-YGP7, pSG-YGD9, or pSG-YDR1 were cultured on LB medium comprising ampicillin, induced with 0.1 mM IPTG for four hours, and then centrifuged to collect the cells.
Each of these cell samples was suspended in a cell lysis solution (50 mM KPB pH 8.0, 1 mM EDTA, 0.02% 2-mercaptoethanol, 2 mM PMSF, 10% Glycerol). The cells were ruptured by sonication and then centrifuged to obtain the supernatant, which was used as a cell-free extract.

In the case of B1, the “3,4-dimethoxyphenylacetone reductase activity (in words)” value is reported as “confirmed to comprise 3,4-dimethoxyphenylacetone reductase activity”.
In the case of B2, the “3,4-dimethoxyphenylacetone reductase activity (in words)” value is reported as “confirmed to comprise 3,4-dimethoxyphenylacetone reductase activity”.
For B3, the “3,4-dimethoxyphenylacetone reductase activity (in words)” value was “confirmed to comprise 3,4-dimethoxyphenylacetone reductase activity”.

Test system: carbonyl reductase
Test: Activity of dehydrogenating 1-(3,4-dimethoxyphenyl)-2-propanol with NADP+
Format: biochemical, Torulaspora delbrueckii
Conditions: substrate 5 mM, coenzyme NADP+, dehydrogenation, pH 8.5, 30° C.
Description: (§2) The enzyme obtained in Example 1 was reacted with various ketones, ketoesters, and soon. The activities of the reduction reactions were expressed as relative activities, where the reduction of 3,4-dimethoxyphenylacetone was regarded as 100 (Table 2) (substrate specificity of carbonyl reductase). The activity of dehydrogenating 1-(3,4-dimethoxyphenyl)-2-propanol was measured as follows: A reaction was performed at 30° C. in a reaction solution comprising 50 mM Tris-HCl buffer (pH 8.5), 2.5 mM NADP^+, 5 mM 1-(3,4-dimethoxyphenyl)-2-propanol, and the enzyme. An increase in absorbance at 340 nm, accompanying NADPH production, was measured. 1 U was defined as the amount of enzyme catalyzing the production of 1 μmol NADPH per minute. In addition, the activity of reducing NADH-dependent 3,4-dimethoxyphenylacetone was measured as follows: A reaction was performed at 30° C. in a reaction solution comprising 50 mM potassium phosphate buffer (pH 6.5), 0.2 mM NADH, 5 mM 3,4-dimethoxyphenylacetone, and the enzyme, and decrease in absorbance at 340 nm, accompanying decrease in NADH, was measured. 1 U was defined as the amount of enzyme catalyzing a decrease of 1 μmol NADH per minute.

`COc1ccc(C[C@@H](C)O)cc1OC` [(R)-1-(3,4-dimethoxyphenyl)-2-propanol] and `COc1ccc(C[C@H](C)O)cc1OC` [(S)-1-(3,4-dimethoxyphenyl)-2-propanol] are the same in Relative activity: 0.0% for the first, 0.0% for the second.

Test system: carbonyl reductase
Test: Substrate specificity: NADPH-dependent reduction by the carbonyl reductase obtained in Example 1
Format: biochemical, Torulaspora delbrueckii
Conditions: substrate 1 mM, coenzyme NADPH; reduction of 3,4-dimethoxyphenylacetone regarded as 100
Description: as §1, §2

Work on `CC12CCC(C(=O)C1=O)C2(C)C` (centres unmarked) [Camphorquinone] yielded a Relative activity of 644%.

Same assay, conditions: substrate 2 mM, coenzyme NADPH; reduction of 3,4-dimethoxyphenylacetone regarded as 100

Molecule `O=C(CCl)c1cccc(Cl)c1` [2-Chloro-1-(3′-chlorophenyl)ethanone] has a Relative activity of 922%.

Same assay, conditions: substrate 20 mM, coenzyme NADPH; reduction of 3,4-dimethoxyphenylacetone regarded as 100

Going from `CCC(=O)C(C)=O` [2,3-Pentanedione] to `CC(=O)C(C)=O` [2,3-Butanedione], the Relative activity falls from 2590% to 1480%.

First: COC(=O)C(C)=O [Methyl pyruvate]
Second: COC(=O)CC(C)=O [Methyl acetoacetate]
The Relative activity of the first is lower: 1320% for the first, 3670% for the second.

Compared with `CCOC(=O)CC(=O)CCl` [Ethyl 4-chloroacetoacetate], `COC(=O)CC(=O)CCl` [Methyl 4-chloroacetoacetate] is higher in Relative activity: 6780% for the first, 8040% for the second.

Going from `CC(=O)OC(C)C(C)=O` (centres unmarked) [2-Acetoxy-3-butanone] to `CC(=O)COC(C)=O` [1-Acetoxy-2-propanone], the Relative activity rises from 589% to 24700%.

Compared with `CC(=O)CC(C)=O` [2,4-Pentanedione], `CCOC(=O)CC(C)=O` [Ethyl acetoacetate] is higher in Relative activity: 422% for the first, 3170% for the second.

First: CC(=O)OC1CCCC1=O (centres unmarked) [2-Acetoxycyclopentanone]
Second: COCC(C)=O [Methoxyacetone]
The Relative activity of the first is higher: 567% for the first, 117% for the second.

Going from `CC(=O)c1ccccc1` [Acetophenone] to `CC(=O)CCc1ccccc1` [Benzylacetone], the Relative activity rises from 256% to 739%.

Compared with `CCC(=O)c1ccc(OC)cc1` [4′-Methoxypropiophenone], `CC(=O)COc1ccccc1` [Phenoxy-2-propanone] is higher in Relative activity: 283% for the first, 939% for the second.

Test system: not listed separately
Test: Enzymatic synthesis of (S)-1-(3,4-dimethoxyphenyl)-2-propanol: optical purity and reaction yield
Format: biochemical
Conditions: 0.2 U homolog enzyme, 50 mM 3,4-dimethoxyphenylacetone, overnight, 25° C., pH 6.5
Description: A reaction was performed overnight at 25° C. in 1 mL of a reaction solution comprising 200 mM potassium phosphate buffer (pH 6.5), 1 mM NADP^+, 2 U glucose dehydroganase (Wako Pure Chemical Industries, Ltd.), 250 mM glucose, 0.25 U carbonyl reductase, and 50 mM 3,4-dimethoxyphenylacetone. The optical purity of the produced (S)-1-(3,4-dimethoxyphenyl)-2-propanol was measured as follows: One mL of ethyl acetate was added to 0.5 mL of the reaction solution to extract (S)-1-(3,4-dimethoxyphenyl)-2-propanol, and the extraction solvent was desolvated. 0.5 mL of a dissolving solution (n-hexane: isopropanol=4:1) was then added to dissolve the extract, which was then analyzed by liquid chromatography using an optical resolution column. CHIRALCEL OF (4.6 mm×25 cm; Daicel Chemical Industries, Ltd.) was used as the optical resolution column. Chromatography was performed with a wavelength of 220 nm, a flow rate of 1.0 mL/min, and at 40° C. using an eluting solution of n-hexane: isopropanol=4:1.
In addition, the (S)-1-(3,4-dimethoxyphenyl)-2-propanol thus-produced was quantified using gas chromatography, and a yield relative to the raw starting material, 3,4-dimethoxyphenylacetone, was obtained. Specifically, the analysis was performed at a column temperature of 210° C., using Thermon 3000 (10%)-Chromosorb W (AW-DMCS, Mesh 60–80; 3.2 mm×210 cm) with a hydrogen flame ionization detector (FID). The resulting reaction yield was about 95%.
To prepare crude enzyme solution for enzyme reaction, the crude enzyme solution prepared in Example 18 was concentrated ten-folds using a UF membrane. This solution was reacted overnight at 25° C. in 1 mL of a reaction solution comprising 200 mM potassium phosphate buffer (pH 6.5), 1 mM NADP^+, 2 U glucose dehydrogenase (Wako Pure Chemical Industries, Ltd.), 250 mM glucose, 0.2 U homolog enzyme, and 50 mM 3,4-dimethoxyphenylacetone. Optical purity was measured and the produced (S)-1-(3,4-dimethoxyphenyl)-2-propanol was quantified as in Example 6. As a result, YGL157w (pSE-YGP7) produced 93.7% ee (S)-1-(3,4-dimethoxyphenyl)-2-propanol at a yield of 66%, YGL039w (pSE-YGD9) produced 93.6% ee at a yield of 94%, and YDR541c (pSE-YDR1) produced 94.8% ee at a yield of 6%.

First: B1
Second: B2
The “Optical purity of the produced (S)-1-(3,4-dimethoxyphenyl)-2-propanol” value of the first is higher: 94.8 % ee for the first, 93.6 % ee for the second.

With B3 the “Optical purity of the produced (S)-1-(3,4-dimethoxyphenyl)-2-propanol” value was 93.7 % ee.

Going from B1 to B2, the “Yield of (S)-1-(3,4-dimethoxyphenyl)-2-propanol” value rises from 6% to 94%.

In the case of B3, the “Yield of (S)-1-(3,4-dimethoxyphenyl)-2-propanol” value is reported as 66%.
